Test: Concentration required for 50% inhibition of growth of AA8 cells following 4 hr drug exposure
Type: functional, cell-based
Conditions: Cricetulus griseus, CHO-AA8, 4 h

| SMILES | IC50 |
| --- | --- |
| COc1cc2cc(C(=O)N3CC(CCl)c4ccc([N+](=O)[O-])cc43)[nH]c2c(OC)c1OC (stereo not drawn) | > 40000 nM |
| CNc1ccc2c(c1)N(C(=O)c1cc3cc(OC)c(OC)c(OC)c3[nH]1)CC2CCl (stereo not drawn) | 220 nM |
| CNc1cc2c(c3ccccc13)C(CCl)CN2C(=O)c1cc2cc(OC)c(OC)c(OC)c2[nH]1 (stereo not drawn) | 0.17 nM |
| COc1cc2cc(C(=O)N3CC(CCl)c4ccc(N(C)C)cc43)[nH]c2c(OC)c1OC (stereo not drawn) | 280 nM |
| COc1cc2cc(C(=O)N3CC(CCl)c4c3cc(N(C)C)c3ccccc43)[nH]c2c(OC)c1OC (stereo not drawn) | 5.6 nM |
| COc1cc2cc(C(=O)N3CC(CCl)c4ccc(N)cc43)[nH]c2c(OC)c1OC (stereo not drawn) | 320 nM |
| COc1cc2cc(C(=O)N3CC(CCl)c4c3cc([N+](=O)[O-])c3ccccc43)[nH]c2c(OC)c1OC (stereo not drawn) | 1600 nM |
| COc1cc2cc(C(=O)N3CC(CCl)c4c3cc(N)c3ccccc43)[nH]c2c(OC)c1OC (stereo not drawn) | 0.43 nM |

From ChEMBL document CHEMBL1130451, “Synthesis and cytotoxicity of amino analogues of the potent DNA alkylating agent seco-CBI-TMI” (Bioorg Med Chem Lett, 1997)
